Source: patent publication US20080221161A1, “HETEROCYCLIC MODULATORS OF TGR5 FOR TREATMENT OF DISEASE” (KALYPSYS, INC., priority 2007, published 2008)

Biological target: T1, human TGR5 (Homo sapiens, UniProt Q8TDU6)
T1 construct: expressed in transfected cells; host or cells: HEK-293 cells, stably transfected (pcDNA 3.1, Fugene6, geneticin selection)
T1 sequence (Q8TDU6 1-330): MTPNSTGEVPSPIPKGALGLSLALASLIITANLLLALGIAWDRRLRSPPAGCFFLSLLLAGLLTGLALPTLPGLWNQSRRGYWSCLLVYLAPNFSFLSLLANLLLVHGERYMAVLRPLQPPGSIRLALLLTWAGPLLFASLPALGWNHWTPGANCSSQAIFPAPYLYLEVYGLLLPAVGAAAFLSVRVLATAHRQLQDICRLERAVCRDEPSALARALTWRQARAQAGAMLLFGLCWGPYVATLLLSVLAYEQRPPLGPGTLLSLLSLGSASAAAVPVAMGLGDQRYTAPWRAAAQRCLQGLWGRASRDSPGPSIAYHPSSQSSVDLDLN
Assay: cAMP production assay in HEK293-TGR5 cells
Assay type: cell-based
Details: HEK293 cells stably expressing human TGR5; 30 minutes stimulation; LANCE cAMP TR-FRET; read-out: cAMP Production in 293-TGR5 Cells EC50

EC50 | Compound
> 10 µM | Oc1ccc2cc(CNCCc3ccc(Cl)cc3)c(-c3ccoc3)nc2c1 [Example 118, 3-((4-Chlorophenethylamino)methyl)-2-(furan-3-yl)quinolin-7-ol]
< 10 µM | COc1ccc2cc(CNC(=O)COc3cccc4ncccc34)c(-c3ccsc3)nc2c1 [Example 119, N-((7-Methoxy-2-(thiophen-3-yl)quinolin-3-yl)methyl)-2-(quinolin-5-yloxy)acetamide]
< 10 µM | COc1ccc2cc(CNCCOc3cccc4ncccc34)c(-c3ccsc3)nc2c1 [Example 121, N-((7-Methoxy-2-(thiophen-3-yl)quinolin-3-yl)methyl)-2-(quinolin-5-yloxy)ethanamine]
> 10 µM | Oc1cc2cc(CNCCc3ccc(Br)cc3)c(-c3ccsc3)nc2cc1Cl [Example 124, 3-((4-Bromophenethylamino)methyl)-7-chloro-2-(thiophen-3-yl)quinolin-6-ol]
< 10 µM | Oc1cc2cc(CNCCc3ccc(Br)cc3)c(-c3ccsc3)nc2cc1F [Example 126, 3-((4-Bromophenethylamino)methyl)-7-fluoro-2-(thiophen-3-yl)quinolin-6-ol]
> 10 µM | Nc1ccc2cc(CNCCc3ccc(Br)cc3)c(-c3ccsc3)nc2c1 [Example 128, 3-((4-Bromophenethylamino)methyl)-2-(thiophen-3-yl)quinolin-7-amine]
< 10 µM | COc1ccc2cc(CN[C@H](C)c3ccc(Br)cc3)c(-c3ccsc3)nc2c1 [Example 130, (R)-1-(4-Bromophenyl)-N-((7-methoxy-2-(thiophen-3-yl)quinolin-3-yl)methyl)ethanamine]
< 10 µM | COc1cc2cc(CNCCc3ccc(Br)cc3)c(-c3ccsc3)nc2cc1C [Example 131, 2-(4-Bromophenyl)-N-((6-methoxy-7-methyl-2-(thiophen-3-yl)quinolin-3-yl)methyl)ethanamine]
< 10 µM | COc1ccc2cc(CN[C@@H](C)c3ccc(Br)cc3)c(-c3ccsc3)nc2c1 [Example 133, (S)-1-(4-Bromophenyl)-N-((7-methoxy-2-(thiophen-3-yl)quinolin-3-yl)methyl)ethanamine]

Continued, molecule first:

Compound | EC50
Cc1c(CNCCc2ccc(Br)cc2)c(-c2ccsc2)nc2cc(O)ccc12 [Example 120, 3-((4-Bromophenethylamino)methyl)-4-methyl-2-(thiophen-3-yl)quinolin-7-ol] | > 10 µM
COc1cc2nc(-c3ccsc3)c(CNCc3ccc(C(F)(F)F)cc3)cc2cc1O [Example 122, 7-Methoxy-2-(thiophen-3-yl)-3-((4-(trifluoromethyl)benzylamino)methyl)quinolin-6-ol] | > 10 µM
COc1cc2cc(CNCCc3ccc(Br)cc3)c(-c3ccsc3)nc2cc1Cl [Example 123, 2-(4-Bromophenyl)-N-((7-chloro-6-methoxy-2-(thiophen-3-yl)quinolin-3-yl)methyl)ethanamine] | > 10 µM
COc1cc2cc(CNCCc3ccc(Br)cc3)c(-c3ccsc3)nc2cc1F [Example 125, 2-(4-Bromophenyl)-N-((7-fluoro-6-methoxy-2-(thiophen-3-yl)quinolin-3-yl)methyl)ethanamine] | > 10 µM
O=[N+]([O-])c1ccc2cc(CNCCc3ccc(Br)cc3)c(-c3ccsc3)nc2c1 [Example 127, 2-(4-bromophenyl)-N-((7-nitro-2-(thiophen-3-yl)quinolin-3-yl)methyl)ethanamine] | > 10 µM
COc1ccc2c(C)c(CNCCc3ccc(Br)cc3)c(-c3ccsc3)nc2c1 [Example 129, 2-(4-Bromophenyl)-N-((7-methoxy-4-methyl-2-(thiophen-3-yl)quinolin-3-yl)methyl)ethanamine] | > 10 µM
Cc1cc2nc(-c3ccsc3)c(CNCCc3ccc(Br)cc3)cc2cc1O [Example 132, 3-((4-Bromophenethylamino)methyl)-7-methyl-2-(thiophen-3-yl)quinolin-6-ol] | > 10 µM
C[C@@H](NCc1cc2ccc(O)cc2nc1-c1ccsc1)c1ccc(Br)cc1 [Example 134, (R)-3-((1-(4-Bromophenyl)ethylamino)methyl)-2-(thiophen-3-yl)quinolin-7-ol] | < 10 µM
